In patent US20050004039A1, “Selective analgesic agents” (Regents of the University of Minnesota, priority 2002, published 2005):

What was measured:
mice [1] = assay: Antagonism of selective opioid agonist-induced antinociception, intrathecal, modified tail flick assay; assay type: in vivo, mouse; conditions: for norBNI antagonism of antinociception with co-administered dynorphin-A antiserum (DAS): FIG. 7, FIG. 8
[2] = test system: guinea pig ileum preparation; assay: Guinea pig ileal longitudinal muscle preparation, electrically stimulated contraction; conditions: guinea pig ilium preparation
[3] = test system: mouse vas deferens preparation; assay: Mouse vas deferens preparation (MVD)
Method: Mouse vasa deferentia are prepared using the method of Henderson, et al (see Henderson, G.; Hughes, J.; Kosterlitz, H. W., Br. J. Pharmacol. 1972, 46, 764-766). Male ICR mice (30-35 g) are killed by cervical dislocation. Both vasa deferentia are removed and mounted between platinum ring electrodes and placed in a 10-mL organ bath containing a modified Kreb's solution (NaCl, 118 mM; KCl, 4.70 mM;CaCl2, 2.52 mM; KH2PO4, 1.19 mM; NaHCO3, 25 mM; glucose, 11.48 mM; pH =7.4) at 37° C. The bath is continuously bubbled with a 95% O2, 5% CO2, gas mixture. One end of the vas deferens is attached to the electrode assembly, the other is attached to a Statham-Gould UC-3 isometric force transducer using 6.0 surgical silk. The vasa deferentia are stimulated transmurally with a Grass S44 stimulator (square waves of supramaximal voltage (70 V) for 1 msec and a frequency of 0.1 Hz). Resting tension is 200 mg. Vasa deferentia are stimulated continuously for 20 minutes before each experiment to allow equilibration to occur. The tissues are washed every 10 minutes during this period.

mice [4] = assay: Tail-flick analgesia after intrathecal or intraventricular administration; assay type: in vivo, mouse
Source text: In the tail-flick assay which was modified for mice, the animal responses are made quantal by establishing and end point at the mean peak effect which represents an increase in the reaction time of an individual animal of greater than three S.D. of the control mean reaction time for all animals used in the group (see F. E. d'Amour et al., J. Pharmacol. Exp. Ther., 1941, 72, 7479; and J. J. Rady et al., J. Pharmacol Exp. Ther., 2000, 224, 93-101). Non-responding animals will be removed from the heat stimulus when reaction times exceed 3 seconds to avoid damage to their tails. At least 50 animals will be used to determine each peak time and ED50 dose-response curve. The ED50 and its 95% confidence interval are estimated using computer programs for both of these statistical procedures.

[5] = ED50 with nor-BNI / control ED50
[6] = agonist i.t. with antagonist BNTX 25 pmol/mouse i.t.
[7] = agonist i.t. with antagonist CTOP 5.9 pmol/mouse i.t.
[8] = agonist i.t. with antagonist NTB 50 pmol/mouse i.t.
[9] = agonist i.t. with antagonist nor-BNI 2.5 nmol/mouse i.t.
[10] = intrathecal (i.t.) administration

| Molecule | Potency Ratio (95% C.I.) (mice [1]; ED50 with BNTX / control ED50) | Potency Ratio (95% C.I.) (mice [1]; ED50 with CTOP / control ED50) | Potency Ratio (95% C.I.) (mice [1]; ED50 with NTB / control ED50) | Potency Ratio (95% C.I.) (mice [1]; [5]) | norBNI antagonism of antinociception with co-administered dynorphin-A antiserum (DAS) (mice [1]) | ED50 (95% C.I.) (mice [1]; [6]) | ED50 (95% C.I.) (mice [1]; [7]) | ED50 (95% C.I.) (mice [1]; [8]) | ED50 (95% C.I.) (mice [1]; [9]) | antagonism of antinociception by BNTX, in words (mice [1]; i.t., mice) | antagonism of antinociception by nor-BNI (κ antagonist), in words (mice [1]; i.t., mice) | antagonism of agonist effect by delta antagonist naltrindole (NTI) [2] | agonist or antagonist activity in MVD [3] | analgesia (mice [4]; icv, concentration 20-fold that of the i.t. dose) [%] | ED50 analgesia (mice [4]; [10]) [nmol/mouse] | antagonism of i.t. analgesia by norBNI (mice [4]; [10]) | analgesic effect (mice [4]; intraventricular (icv), 10-fold higher concentration than i.t.) | antagonism of antinociception by CTOP (μ antagonist), in words (mice [1]; i.t., mice) |
| --- | --- | --- | --- | --- | --- | --- | --- | --- | --- | --- | --- | --- | --- | --- | --- | --- | --- | --- |
| [D-Pen^2,5]enkephalin [DPDPE] | 10.61 (6.08-18.51) | 1.43 (1.06-1.93) | 0.98 (0.71-1.41) | 12.44 (9.91-15.83) | failed to substantially reduce the potent norBNI antagonism | 41.10 (26.44-60.95) nmol/mouse | 5.11 (4.04-6.37)) nmol/mouse | 3.44 (2.69-4.45) nmol/mouse | 43.30 (36.40-51.59) nmol/mouse | antagonized | antagonized |  |  |  |  |  |  |  |
| NC(N)=Nc1ccc2c3c([nH]c2c1)[C@@H]1Oc2c(O)ccc4c2[C@@]12CCN(CC1CC1)C(C4)[C@]2(O)C3 [compound 7, 6′-Guanidino-17-(cyclopropylmethyl)-6,7-didehydro-4,5α-epoxy-3,14-hydroxyindolo-[2′,3′:6,7]morphinian] |  |  |  |  |  |  |  |  |  |  |  | non-competetively antagonized | inactive as an agonist or as an antagonist | 20 | 0.45 | could be antagonized by norBNI | no analgesic effect |  |
| C[C@@H](NC(=O)[C@@H](N)Cc1ccc(O)cc1)C(=O)NCC(=O)N(C)[C@@H](Cc1ccccc1)C(=O)NCCO [DAMGO, [D-Ala^2,N-Me-Phe^4,Gly-ol^5]enkephalin] | 1.50 (0.94-2.83) | 9.89 (5.91-15.34) | 1.20 (0.61-3.26) | 26.26 (16.30-46.90) | little if any antagonism | 0.017 (0.012-0.027) nmol/mouse | 0.112 (0.070-0.157) nmol/mouse | 0.014 (0.008-0.027) nmol/mouse | 0.283 (0.202-0.417) nmol/mouse |  | antagonized |  |  |  |  |  |  | antagonized |
